According to patent US10912741B2, “Prevention of liver cancer with safranal-based formulations” (United Arab Emirates University, priority 2019, dated 2021):
Marks after values point to notes of the source that are not given here.

Columns and labels:
HeLa cells = conditions: reported in the background; cited from earlier work
p-H2AX in HepG2 cells = assay: Western blotting, p-H2AX; type: cell-based, human; conditions: 24 hours of safranal treatment (1 mM)
Protocol: HepG2, were cultured in RPMI 1640 medium (HyClone, USA) and 1% of 100 U/ml penicillin and 100 ug/ml streptomycin (Sigma, USA) supplemented with 10% fetal bovine serum (Sigma, USA) at 37° C. in a humidified 5% CO2 atmosphere. Cells were sub-cultured each 4-6 days using trypsin 0.25% (Hyclone, USA).
In 100 mm plates, HepG2 cells were seeded at a density of 2×10^4 in complete growth medium. Cells were allowed to attach for 24 hours, after which complete growth medium was replaced by serum-free medium. Cells were treated with safranal at a concentration of 1 mM (20 mM stock). Plates were incubated for 6, 12, 24, and 48 hours in a humidified 5% CO2 atmosphere at 37° C. At indicated times, 1 mL of cell supernatant was obtained from each plate and was stored at −80° C. for further analysis by ELISA. After which whole cell lysates were prepared. Bicinchoninic acid (BCA) assay (Sigma-Aldrich, USA) was used to determine concentration of protein. Thirty μg of protein were loaded onto 10% SDS polyacrylamide electrophoresis gels. The gels were transferred onto nitrocellulose membranes prior to immunodetection processing with anti-p-IkB-alpha, anti-H2AX (Cell Signaling Technology, USA), and with anti-rabbit IgG peroxidase conjugated secondary antibodies. […]

[1] = tested on: alveolar human lung cancer A549; conditions: A549 cell line, reported in the background; cited from earlier work
[2] = tested on: foci of altered hepatocytes (FAH); assay: Histopathology (H&E) of liver, foci of altered hepatocytes; type: in vivo, albino Wistar rats
Protocol: (§1) The experimental hepatocarcinogenesis model was developed according to a protocol by Espandiaria et al. that was adapted for our purposes. To initiate and promote hepatocarcinogenesis, diethylnitrosamine (DEN) and 2-acetylaminofluorene (2-AAF) were used, respectively. For hepatocarcinogenesis initiation in this model, a single DEN dose (200 mg/kg b.wt.) dissolved in saline was injected intraperitoneally. After initiation, all rats underwent one period of 5-days fasting, as mitotic proliferative stimuli. To promote hepatocarcinogenesis, 2-acetylaminofluorene (2-AAF) was introduced in the form of six daily intragastric doses (30 mg/kg in 1% Tween 80); two weeks after DEN treatment.
Safranal at doses of 25 mg/kg by weight (b.wt.) and 50 mg/kg b.wt, was administrated orally to rats. These doses have been reported to suppress chemically-induced oxidative damage in rats. A total of 40 adult male albino Wistar rats were randomly divided into […] (n=8) and were subjected to different treatments. Group 1 (control) was orally administered distilled water (5 ml/kg b.wt.) throughout the experimental duration and were injected with a single dose of saline. Group 2 (Safranal only) was subjected to a safranal dose (50 mg/kg b.wt.) through oral administration for the duration of the experimental period. […]

COX-2 = assay: Immunohistochemical staining of liver sections, COX-2 positive cells; type: in vivo, albino Wistar rats; conditions: mean±SEM, 8 rats
Protocol: as §1
Safranal at doses of 25 mg/kg by weight (b.wt.) and 50 mg/kg b.wt, was administrated orally to rats. These doses have been reported to suppress chemically-induced oxidative damage in rats. A total of 40 adult male albino Wistar rats were randomly divided into […] (n=8) and were subjected to different treatments. Group 1 (control) was orally administered distilled water (5 ml/kg b.wt.) throughout the experimental duration and were injected with a single dose of saline. Group 2 (Safranal only) was subjected to a safranal dose (50 mg/kg b.wt.) through oral administration for the duration of the experimental period. Hepatocarcinogenesis was induced by DEN and promoted by 2-AAF, as reported previously, in group 3 (HCC). Rats in protective groups (groups 4-5) were treated with low/high doses of saffron-based safranal suspensions, at the beginning of promotion periods and continued for 12 weeks. The low dosage treatment with safranal consisted of 25 mg/kg b.wt., and the high dosage treatment consisted of 50 mg/kg b.wt. The experimental design is illustrated in FIG. 1.
For immunohistochemical staining, mounted sections were immersed in sodium citrate buffer (0.1 M, pH 6) and placed in a water bath for 15 minutes to unmask antigen epitopes. […] Ten fields were randomly selected to quantify positive cells, in individual samples (400×). […]

CC1=C(C=O)C(C)(C)CC=C1 [Safranal, 2,6,6-trimethylcyclohexa-1,3-diene-1-carbaldehyde]
growth of HeLa cells (HeLa cells): inhibit the growth of HeLa cells | protein level of p-H2AX (p-H2AX in HepG2 cells): remarkable induction of p-H2AX | apoptosis [1]: induce apoptosis | number and size of hepatocellular nodules (FAH) ([2]; protective groups, DEN-2-AAF rats + low/high doses of safranal (25/50 mg/kg b.wt.)): remarkably decrease in number and size | hepatocellular nodules (FAH) in liver sections ([2]; treatment with safranal alone (group 2, 50 mg/kg b.wt.)): abolished such hepatocellular nodules almost completely | COX-2 positive cells (COX-2; HCC (DEN/2-AAF) rats + safranal high dose 50 mg/kg b.wt. oral, 12 weeks): 6.91 ± 1.09^a&b positive cells/field | COX-2 positive cells (COX-2; HCC (DEN/2-AAF) rats + safranal low dose 25 mg/kg b.wt. oral, 12 weeks): 2.15 ± 0.38^b positive cells/field | COX-2 positive cells (COX-2; safranal alone 50 mg/kg b.wt. oral, no DEN (group 2)): 0.58 ± 0.04 positive cells/field
